Source: patent publication US10570184B2, “GLP-1/glucagon receptor co-agonists for medical use” (Novo Nordisk A/S, priority 2014, dated 2020)
Starred links: 1 amine or outer side, 2 acyl side, 3 side chain; linkers in the order of their positions; H or OH if unused. Non-standard residues stand in square brackets, D forms with d. Residues, ends and D or L forms follow the SMILES beside them. Groups on a side chain read outwards from the residue. *: point of attachment. C18 diacid = O=C(O)CCCCCCCCCCCCCCCCC(=O)*; γGlu = O=C(O)[C@H](CCC(=O)[*:2])N[*:1]; Ac4c = NC1(C(=O)O)CCC1; AEEA = NCCOCCOCC(=O)O; Aib = CC(C)(N)C(=O)O

Assay: Assay (III) ThT fibrillation assay for physical stability
Format: physicochemical
Details: 250 μM in 10 mM HEPES buffer, 37° C., shaking 960 rpm
How it was run: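 Glucagon derivative at 250 μM in 10 mM HEPES pH 7.5 with 1 μM ThT was incubated at 37 °C under 960 rpm orbital shaking. Fluorescence (ex 444/em 485 nm) was read every 20 min and fitted for lag time (t0−2τ) and kapp (1/τ). Recovery was soluble peptide after centrifugation/filtration, by RP-HPLC, as percent of initial.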

| SMILES | ThT Assay Lag time (h) [Assay (III), pH 7.5] |
| --- | --- |
| CC[C@H](C)[C@H](NC(=O)[C@H](CC(C)C)NC(=O)[C@H](Cc1c[nH]c2ccccc12)NC(=O)[C@H](C)NC(=O)[C@@H](NC(=O)[C@H](Cc1ccccc1)NC(=O)[C@H](CC(=O)O)NC(=O)[C@H](CCCNC(=N)N)NC(=O)[C@H](C)NC(=O)[C@H](CCCNC(=N)N)NC(=O)[C@H](CCCNC(=N)N)NC(=O)[C@H](CC(C)C)NC(=O)[C@H](CC(=O)O)NC(=O)[C@H](CC(C)C)NC(=O)[C@H](Cc1ccc(O)cc1)NC(=O)[C@H](CCCCN)NC(=O)[C@H](CO)NC(=O)[C@H](CC(C)C)NC(=O)[C@H](CC(=O)O)NC(=O)[C@H](CO)NC(=O)[C@@H](NC(=O)[C@H](Cc1ccccc1)NC(=O)[C@@H](NC(=O)CNC(=O)[C@H](CCC(N)=O)NC(=O)C(C)(C)NC(=O)[C@@H](N)Cc1c[nH]cn1)[C@@H](C)O)[C@@H](C)O)C(C)C)C(=O)N[C@@H](CC(N)=O)C(=O)N[C@@H](CCCCNC(=O)CC[C@H](NC(=O)CC[C@H](NC(=O)COCCOCCNC(=O)COCCOCCNC(=O)CC[C@H](NC(=O)CCCCCCCCCCCCCCCCC(=O)O)C(=O)O)C(=O)O)C(=O)O)C(N)=O [Chem. 24, N^ε29-[(4S)-4-carboxy-4-[[(4S)-4-carboxy-4-[[2-[2-[2-[[2-[2-[2-[[(4S)-4-carboxy-4-(17-carboxyheptadecanoylamino)butanoyl]amino]ethoxy]ethoxy]acetyl]amino]ethoxy]ethoxy]acetyl]amino]butanoyl]amino]butanoyl]-[Aib2,Leu10,Leu16,Arg20,Ala24,Ile27,Lys29]-Glucagon amide] (H-H[Aib]QGTFTSDLSKYLDLRRARDFVAWLINK([γGlu-γGlu-AEEA-AEEA-γGlu-C18 diacid])-NH2; N-terminus assumed) | 45.0 h |
| CC[C@H](C)[C@H](NC(=O)[C@H](CC(C)C)NC(=O)[C@H](Cc1c[nH]c2ccccc12)NC(=O)[C@H](CCC(N)=O)NC(=O)[C@@H](NC(=O)[C@H](Cc1ccccc1)NC(=O)[C@H](CCC(=O)O)NC(=O)[C@H](CCCNC(=N)N)NC(=O)[C@H](C)NC(=O)[C@H](CCCNC(=N)N)NC(=O)[C@H](CCCNC(=N)N)NC(=O)[C@H](CO)NC(=O)[C@H](CCC(=O)O)NC(=O)[C@H](CC(C)C)NC(=O)[C@H](Cc1ccc(O)cc1)NC(=O)[C@H](CCCCN)NC(=O)[C@H](CO)NC(=O)[C@H](CC(C)C)NC(=O)[C@H](CC(=O)O)NC(=O)[C@H](CO)NC(=O)[C@@H](NC(=O)[C@H](Cc1ccccc1)NC(=O)[C@@H](NC(=O)CNC(=O)[C@H](CCC(N)=O)NC(=O)C(C)(C)NC(=O)[C@@H](N)Cc1c[nH]cn1)[C@@H](C)O)[C@@H](C)O)C(C)C)C(=O)N[C@@H](CCCCNC(=O)CC[C@H](NC(=O)CC[C@H](NC(=O)COCCOCCNC(=O)COCCOCCNC(=O)CC[C@H](NC(=O)CC[C@H](NC(=O)CCCCCCCCCCCCCCCCC(=O)O)C(=O)O)C(=O)O)C(=O)O)C(=O)O)C(=O)N[C@H](C(N)=O)[C@@H](C)O [Chem. 25, N^ε28-[(4S)-4-carboxy-4-[[(4S)-4-carboxy-4-[[2-[2-[2-[[2-[2-[2-[[(4S)-4-carboxy-4-[[(4S)-4-carboxy-4-(17-carboxyheptadecanoylamino)butanoyl]amino]butanoyl]amino]ethoxy]ethoxy]acetyl]amino]ethoxy]ethoxy]acetyl]amino]butanoyl]amino]butanoyl]-[Aib2,Leu10,Glu15,Arg20,Glu21,Ile27,Lys28]-Glucagon amide] (H-H[Aib]QGTFTSDLSKYLESRRAREFVQWLIK([γGlu-γGlu-AEEA-AEEA-γGlu-γGlu-C18 diacid])T-NH2; N-terminus assumed) | 23.0 h |
| CC[C@H](C)[C@H](NC(=O)[C@H](CC(=O)O)NC(=O)[C@H](CO)NC(=O)[C@@H](NC(=O)[C@H](Cc1ccccc1)NC(=O)[C@@H](NC(=O)CNC(=O)[C@H](CCC(N)=O)NC(=O)C1(NC(=O)[C@@H](N)Cc2c[nH]cn2)CCC1)[C@@H](C)O)[C@@H](C)O)C(=O)N[C@@H](CO)C(=O)N[C@@H](CCCCN)C(=O)N[C@@H](Cc1ccc(O)cc1)C(=O)N[C@@H](CC(C)C)C(=O)N[C@@H](CCC(=O)O)C(=O)N[C@@H](CO)C(=O)N[C@@H](CCCNC(=N)N)C(=O)N[C@@H](CCCNC(=N)N)C(=O)N[C@@H](C)C(=O)N[C@@H](CCCNC(=N)N)C(=O)N[C@@H](CCC(=O)O)C(=O)N[C@@H](Cc1ccccc1)C(=O)N[C@H](C(=O)N[C@@H](CCC(N)=O)C(=O)N[C@@H](Cc1c[nH]c2ccccc12)C(=O)N[C@@H](CC(C)C)C(=O)N[C@H](C(=O)N[C@@H](CCCCNC(=O)CC[C@H](NC(=O)CC[C@H](NC(=O)COCCOCCNC(=O)COCCOCCNC(=O)CC[C@H](NC(=O)CC[C@H](NC(=O)CCCCCCCCCCCCCCCCC(=O)O)C(=O)O)C(=O)O)C(=O)O)C(=O)O)C(=O)N[C@H](C(N)=O)[C@@H](C)O)[C@@H](C)CC)C(C)C [Chem. 26, N^ε28-[(4S)-4-carboxy-4-[[(4S)-4-carboxy-4-[[2-[2-[2-[[2-[2-[2-[[(4S)-4-carboxy-4-[[(4S)-4-carboxy-4-(17-carboxyheptadecanoylamino)butanoyl]amino]butanoyl]amino]ethoxy]ethoxy]acetyl]amino]ethoxy]ethoxy]acetyl]amino]butanoyl]amino]butanoyl]-[Acb2,Ile10,Glu15,Arg20,Glu21,Ile27,Lys28]-Glucagon amide] (H-H[Ac4c]QGTFTSDISKYLESRRAREFVQWLIK([γGlu-γGlu-AEEA-AEEA-γGlu-γGlu-C18 diacid])T-NH2; N-terminus assumed) | 45.0 h |
| CC[C@H](C)[C@H](NC(=O)[C@H](CC(C)C)NC(=O)[C@H](Cc1c[nH]c2ccccc12)NC(=O)[C@H](CCC(N)=O)NC(=O)[C@@H](NC(=O)[C@H](Cc1ccccc1)NC(=O)[C@H](CC(=O)O)NC(=O)[C@H](CCCNC(=N)N)NC(=O)[C@H](C)NC(=O)[C@H](CCCNC(=N)N)NC(=O)[C@H](CCCNC(=N)N)NC(=O)[C@H](C)NC(=O)[C@H](CC(=O)O)NC(=O)[C@H](CC(C)C)NC(=O)[C@H](Cc1ccc(O)cc1)NC(=O)[C@H](CCCCN)NC(=O)[C@H](CO)NC(=O)[C@H](CC(C)C)NC(=O)[C@H](CC(=O)O)NC(=O)[C@H](CO)NC(=O)[C@@H](NC(=O)[C@H](Cc1ccccc1)NC(=O)[C@@H](NC(=O)CNC(=O)[C@H](CCC(N)=O)NC(=O)C(C)(C)NC(=O)[C@@H](N)Cc1c[nH]cn1)[C@@H](C)O)[C@@H](C)O)C(C)C)C(=O)N[C@@H](CO)C(=O)N[C@@H](CCCCNC(=O)CC[C@H](NC(=O)CC[C@H](NC(=O)COCCOCCNC(=O)COCCOCCNC(=O)CC[C@H](NC(=O)CCCCCCCCCCCCCCCCC(=O)O)C(=O)O)C(=O)O)C(=O)O)C(N)=O [Chem. 27, N^ε29-[(4S)-4-carboxy-4-[[(4S)-4-carboxy-4-[[2-[2-[2-[[2-[2-[2-[[(4S)-4-carboxy-4-(17-carboxyheptadecanoylamino)butanoyl]amino]ethoxy]ethoxy]acetyl]amino]ethoxy]ethoxy]acetyl]amino]butanoyl]amino]butanoyl]-[Aib2,Leu10,Ala16,Arg20,Ile27,Ser28,Lys29]-Glucagon amide] (H-H[Aib]QGTFTSDLSKYLDARRARDFVQWLISK([γGlu-γGlu-AEEA-AEEA-γGlu-C18 diacid])-NH2; N-terminus assumed) | 45.0 h |
| CC[C@H](C)[C@H](NC(=O)[C@H](CC(C)C)NC(=O)[C@H](Cc1c[nH]c2ccccc12)NC(=O)[C@H](CCC(N)=O)NC(=O)[C@@H](NC(=O)[C@H](Cc1ccccc1)NC(=O)[C@H](CCC(=O)O)NC(=O)[C@H](CCCNC(=N)N)NC(=O)[C@H](C)NC(=O)[C@H](CCCNC(=N)N)NC(=O)[C@H](CCCNC(=N)N)NC(=O)[C@H](C)NC(=O)[C@H](CC(=O)O)NC(=O)[C@H](CC(C)C)NC(=O)[C@H](Cc1ccc(O)cc1)NC(=O)[C@H](CCCCN)NC(=O)[C@H](CO)NC(=O)[C@H](CC(C)C)NC(=O)[C@H](CC(=O)O)NC(=O)[C@H](CO)NC(=O)[C@@H](NC(=O)[C@H](Cc1ccccc1)NC(=O)[C@@H](NC(=O)CNC(=O)[C@H](CCC(N)=O)NC(=O)C(C)(C)NC(=O)[C@@H](N)Cc1c[nH]cn1)[C@@H](C)O)[C@@H](C)O)C(C)C)C(=O)N[C@@H](CO)C(=O)N[C@@H](CCCCNC(=O)CC[C@H](NC(=O)CC[C@H](NC(=O)COCCOCCNC(=O)COCCOCCNC(=O)CC[C@H](NC(=O)CCCCCCCCCCCCCCCCC(=O)O)C(=O)O)C(=O)O)C(=O)O)C(N)=O [Chem. 28, N^ε29-[(4S)-4-carboxy-4-[[(4S)-4-carboxy-4-[[2-[2-[2-[[2-[2-[2-[[(4S)-4-carboxy-4-(17-carboxyheptadecanoylamino)butanoyl]amino]ethoxy]ethoxy]acetyl]amino]ethoxy]ethoxy]acetyl]amino]butanoyl]amino]butanoyl]-[Aib2,Leu10,Ala16,Arg20,Glu21,Ile27,Ser28,Lys29]-Glucagon amide] (H-H[Aib]QGTFTSDLSKYLDARRAREFVQWLISK([γGlu-γGlu-AEEA-AEEA-γGlu-C18 diacid])-NH2; N-terminus assumed) | 45.0 h |
